Reference: patent publication US8354436B2 (4SC Discovery GmbH, priority 2011, dated 2013)
Read-outs that look alike come from different tables or passages of the source.

Key:
Format in all cases: cell-based
Conditions in all cases: 48 hours
IL-17FF = IL-17FF production by PHA-stimulated human PBMC (human IL-17F ELI-Pair)
Summary of the method: (§1)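 Compounds tested on PHA (2 μg/ml)-stimulated human PBMC, 1×10^5 cells/well, 48 h, at 10, 1, 0.1 and 0.01 μM or semilog titration for IC50. Cytokines in culture supernatant: IL-17AA/AF by Luminex BioPlex; IL-17AA, IL-17FF, IFN-γ by separate ELISAs.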

IFN-γ = IFN-γ production by PHA-stimulated human PBMC (OptEIA human IFN-g ELISA)
Summary of the method: as §1

[1] = tested on: PBMC from healthy human donors; assay: T cell proliferation assay (PHA-stimulated human PBMC, BrdU ELISA)
Summary of the method: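 Healthy-donor PBMC isolated on Ficoll, seeded at 1×10⁵ cells/well in RPMI with 10% dialysed FCS, stimulated with 2 μg/ml PHA in presence of test compound. Proliferation read after 48 hours by BrdU-incorporation ELISA.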

[2] = PHA-stimulated human PBMC, column B, read-out: IC50 (IL-17FF)
[3] = PHA-stimulated human PBMC, column C, read-out: IC50 (IFNγ)
[4] = PHA-stimulated human PBMC, column D, read-out: IC50 (Tcell proliferation)
[5] = human PBMC, 2 μg/ml PHA, read-out: B: IC50 (IL-17FF)
[6] = human PBMC, 2 μg/ml PHA, read-out: C: IC50 (IFNγ)
[7] = human PBMC, 2 μg/ml PHA, read-out: D: IC50 (Tcell proliferation)

IC50 (IL-17FF; [2]) | IC50 (IFN-γ; [3]) | IC50 (IL-17FF; [5]) | IC50 (IFN-γ; [6]) | SMILES | IC50 [1, 4] | IC50 [1, 7]
10 to 100 nM | 10 to 100 nM |  |  | COC(=O)c1c(-c2c(F)cccc2Cl)noc1-c1cnn(-c2cccc(NC(C)=O)c2)c1C(F)(F)F [IB-89, 5-(1-(3-acetamidophenyl)-5-(trifluoromethyl)-1H-pyrazol-4-yl)-3-(2-chloro-6-fluorophenyl)isoxazole-4-carboxylate] | 100 to 1000 nM | 
100 to 1000 nM | 100 to 1000 nM |  |  | COC(=O)c1c(-c2ccccc2F)noc1-c1cnn(-c2cccc(F)c2)c1C(F)(F)F [Example I-92, methyl 3-(2-fluorophenyl)-5-(1-(3-fluorophenyl)-5-(trifluoromethyl)-1H-pyrazol-4-yl)isoxazole-4-carboxylate] | 100 to 1000 nM | 
 |  | < 10 nM | < 10 nM | Fc1cccc(-n2ncc(-c3onc(-c4c(F)cccc4Cl)c3-c3ccco3)c2C(F)(F)F)c1 [Example 17, 3-(2-chloro-6-fluorophenyl)-5-(1-(3-fluorophenyl)-5-(trifluoromethyl)-1H-pyrazol-4-yl)-4-(furan-2-yl)isoxazole] |  | < 10 nM
1000 to 10000 nM | 1000 to 10000 nM |  |  | CCOC(=O)c1c(-c2c(F)cccc2Cl)noc1-c1cnn(-c2ccccc2C#N)c1C(F)(F)F [IB-44, ethyl 3-(2-chloro-6-fluorophenyl)-5-(1-(2-cyanophenyl)-5-(trifluoromethyl)-1H-pyrazol-4-yl)-isoxazole-4-carboxylate] | 1000 to 10000 nM | 
1000 to 10000 nM | 1000 to 10000 nM |  |  | O=C(c1c(-c2c(F)cccc2Cl)noc1-c1cnn(-c2ccccc2F)c1C(F)(F)F)N1CCCO1 [IB-52, (3-(2-chloro-6-fluorophenyl)-5-(1-(2-fluorophenyl)-5-(trifluoromethyl)-1H-pyrazol-4-yl)isoxazol-4-yl)(isoxazolidin-2-yl)methanone] | 1000 to 10000 nM | 
100 to 1000 nM | 100 to 1000 nM |  |  | CNC(=O)c1c(-c2c(F)cccc2Cl)noc1-c1cnn(-c2ccccn2)c1C(F)(F)F [IB-93, 3-(2-chloro-6-fluorophenyl)-N-methyl-5-(1-(pyridin-2-yl)-5-(trifluoromethyl)-1H-pyrazol-4-yl)isoxazole-4-carboxamide] | 1000 to 10000 nM | 
1000 to 10000 nM | 1000 to 10000 nM |  |  | CC(=O)Nc1c(-c2c(F)cccc2Cl)noc1-c1cnn(-c2cccc(F)c2)c1C(F)(F)F [Example I-139, N-(3-(2-chloro-6-fluorophenyl)-5-(1-(3-fluorophenyl)-5-(trifluoromethyl)-1H-pyrazol-4-yl)isoxazol-4-yl)acetamide] | 1000 to 10000 nM | 
1000 to 10000 nM | 100 to 1000 nM |  |  | CCOC(=O)c1c(-c2c(Cl)cncc2Cl)noc1-c1cnn(-c2ccccn2)c1C(F)(F)F [IB-5, ethyl 3-(3,5-dichloropyridin-4-yl)-5-(1-(pyridin-2-yl)-5-(trifluoromethyl)-1H-pyrazol-4-yl)isoxazole-4-carboxylate] | 1000 to 10000 nM | 
100 to 1000 nM | 10 to 100 nM |  |  | CCOC(=O)c1c(-c2ccc(Cl)cc2Cl)noc1-c1cnn(-c2cccc(F)c2)c1C(F)(F)F [Example I-112, ethyl 3-(2,4-dichlorophenyl)-5-(1-(3-fluorophenyl)-5-(trifluoromethyl)-1H-pyrazol-4-yl)isoxazole-4-carboxylate] | 100 to 1000 nM | 
 |  | 10 to 100 nM | 10 to 100 nM | Fc1cccc(Cl)c1-c1noc(-c2cnn(-c3ccncc3)c2C(F)(F)F)c1-c1ccoc1 [Example B-24, 3-(2-chloro-6-fluorophenyl)-4-(furan-3-yl)-5-(1-(pyridin-4-yl)-5-(trifluoromethyl)-1H-pyrazol-4-yl)isoxazole] |  | 10 to 100 nM
10 to 100 nM | 10 to 100 nM |  |  | CCOC(=O)c1c(-c2c(Cl)cncc2Cl)noc1-c1cnn(-c2cccc(NC(C)=O)c2)c1C(F)(F)F [IB-11, ethyl 5-(1-(3-acetamidophenyl)-5-(trifluoromethyl)-1H-pyrazol-4-yl)-3-(3,5-dichloropyridin-4-yl)isoxazole-4-carboxylate] | 100 to 1000 nM | 
